The values below come from article PMC8165102 (International Journal of Nanomedicine, 2021).

In brackets after ≈: the same amount, converted by molar mass.

The conditions of series [1]: cited from earlier work.
Series [2] concerns guinea pig papillary muscle. The conditions noted are these: 0.4 µM; cited from earlier work.
Series [3] can be described thus: Surfactant-assisted rapid release of BF211@Lipo. It counts as physicochemical.

Consider `C[C@]12CC[C@H](O)C[C@H]1CC[C@@H]1[C@@H]2CC[C@]2(C)[C@@H](c3ccc(=O)oc3)CC[C@]12O` [BF, Bufalin], for which, in series [1], the solubility was 10 µg/mL (≈ 25.9 µM). Further, the “effect on papillary muscle” value in series [2] is listed as “arrhythmias”.
Take Tween 80: the “release-promoting effect on BF211@Lipo” value in series [3] was “weak and unregulated release-promoting effect”.

By solubility is commonly meant the concentration that dissolves in the medium under given conditions.
